For data set [1], the system named is symptomatic HCM patients. The data set is described as follows: Cardiopulmonary exercise test (peak oxygen consumption), randomized double-blind placebo-controlled study in HCM. It is filed as in vivo, human. From the text:
(§1) The study was approved by the South Birmingham Research Ethics Committee and the investigation conforms with the principles outlined in the Declaration of Helsinki All study participants provided written informed consent. The study was a randomized, double blind, placebo-controlled parallel-group design of minimum 3 months duration. FIG. 3 represents a flow chart of the study. The pre-defined primary end point was peak oxygen consumption (peak VO2). Pre-defined secondary end points were symptomatic status, resting myocardial energetics (PCr/γ-ATP ratio) and diastolic function at rest and during exercise (nTTPF). 33 controls of similar age and gender distribution were recruited for comparison with baseline data of HCM patients. All controls had no history or symptoms of any cardiovascular disease with normal ECG and echocardiogram (LVEF≧55%).
(§2) Patients were recruited from dedicated cardiomyopathy clinics at The Heart Hospital, University College London Hospitals, London and Queen Elizabeth Hospital, Birmingham, UK between 2006 and 2008. Inclusion criteria were 18 to 80 years old symptomatic HCM patients (predominant symptom breathlessness) in sinus rhythm with reduced peak VO2 (<75% of predicted for age and gender) and no significant LVOT obstruction at rest (gradient<30 mmHg). Exclusion criteria were presence of epicardial coronary artery disease, abnormal liver function test, concomitant use of amiodarone or selective serotonin reuptake inhibitors (due to potential drug interactions with perhexiline), peripheral neuropathy and women of childbearing potential. Diabetic patients were also excluded to maintain the blindness of the study as Perhexiline may lead to a reduction in plasma glucose in such patients necessitating a reduction in anti-diabetic therapy. 46 consecutive consenting patients who met these entry criteria were recruited into the study.
This was performed using a Schiller CS-200 Ergo-Spiro exercise machine which was calibrated before every study. […]
(§3) Following baseline studies, patients were randomized in a double-blind fashion to receive either perhexiline (n=25) or placebo (n=21) 100 mg OD. […] At the end of study, patients were re-evaluated as described earlier.
(§4) Data were analyzed using SPSS ver. 15.0 for Window and Microsoft Office Excel 2007, and expressed as Mean±Standard Deviation (SD). Comparison of continuous variables between Perhexiline and Placebo baseline data were determined by unpaired Student's t-test (2-tail) if variables were normally distributed and the Mann-Whitney U-test if the data were non-normally distributed. […]

The subject of data set [2] is symptomatic HCM patients. Kind of data set: 31P cardiac magnetic resonance spectroscopy, resting myocardial energetics (PCr/γ-ATP ratio) in HCM study. Format: in vivo, human.
Text: as §1
Patients were recruited from dedicated cardiomyopathy clinics at The Heart Hospital, University College London Hospitals, London and Queen Elizabeth Hospital, Birmingham, UK between 2006 and 2008. […]
In vivo myocardial energetics were measured using a MRS at 3-Tesla Phillips Achieva 3T scanner (Shivu G N, Abozguia K, Phan T T, Ahmed I, Henning A, Frenneaux M. (31)P magnetic resonance spectroscopy to measure in vivo cardiac energetics in normal myocardium and hypertrophic cardiomyopathy: Experiences at 3T. Eur J Radiol 2008). A java magnetic resonance user interface v3.0 (jMRUI) was used for analysis (see Naressi A, Couturier C, Castang I, de Beer R, Graveron-Demilly D. Java-based graphical user interface for MRUI, a software package for quantitation of in vivo/medical magnetic resonance spectroscopy signals. Comput Biol Med 2001; 31(4):269-286)). […] Data were analyzed by an investigator who was blinded to the participants' clinical status. […]
as §3
Data were analyzed using SPSS ver. […]

Data set [3] concerns symptomatic HCM patients. Kind of data set: Radionuclide ventriculography, diastolic filling (nTTPF) at rest and during exercise in HCM study. Format: in vivo, human.
Text: as §1
Patients were recruited from dedicated cardiomyopathy clinics at The Heart Hospital, University College London Hospitals, London and Queen Elizabeth Hospital, Birmingham, UK between 2006 and 2008. Inclusion criteria were 18 to 80 years old symptomatic HCM patients (predominant symptom breathlessness) in sinus rhythm with reduced peak VO2 (<75% of predicted for age and gender) and no significant LVOT obstruction at rest (gradient<30 mmHg). […]
Diastolic filling were assessed by equilibrium R-wave gated blood pool scintigraphy using a standard technique at rest and during graded semi erect exercise on a cycle ergometer (Atherton J J, Moore T D, Lele S S et al. Diastolic ventricular interaction in chronic heart failure. Lancet 1997; 349 (9067):1720-1724; Lele S S, Macfarlane D, Morrison S, Thomson H, Khafagi F, Frenneaux M. Determinants of exercise capacity in patients with coronary artery disease and mild to moderate systolic dysfunction. Role of heart rate and diastolic filling abnormalities. Eur Heart J 1996; 17(2):204-212). Peak left ventricular filling rate in terms of end-diastolic count per second (EDC/s) and time to peak filling normalised for R—R interval (nTTPF) in milliseconds were measured at rest and during exercise (50% of heart rate reserve). […]
as §3, §4

Data set [4] has as its system symptomatic HCM patients. The data set is described as follows: Symptomatic status assessment (NYHA class, Minnesota Living with heart failure questionnaire) in HCM study. It is filed as in vivo, human.
Text: as §1, §2
All HCM patients filled in Minnesota Living with heart failure questionnaire and were also assessed for NHYA class.
(§5) Following baseline studies, patients were randomized in a double-blind fashion to receive either perhexiline (n=25) or placebo (n=21) 100 mg OD. Serum perhexiline levels were obtained at 1 and 4 weeks after initiation of the drug. Dose adjustments were advised by an unblinded physician according to serum level to achieve therapeutic level and to avoid drug toxicity. Identical dosage adjustments were also made for randomly allocated placebo-treated patients by the unblinded observer to ensure that blinding of the investigators was maintained. At the end of study, patients were re-evaluated as described earlier.
Data were analyzed using SPSS ver. 15.0 for Window and Microsoft Office Excel 2007, and expressed as Mean±Standard Deviation (SD). Comparison of continuous variables between Perhexiline and Placebo baseline data were determined by unpaired Student's t-test (2-tail) if variables were normally distributed and the Mann-Whitney U-test if the data were non-normally distributed. ANCOVA with baseline values as covariates was performed to test for the significance of differences in the perhexiline versus placebo group after treatment. For the primary end point, the sample size required to detect a change in peak Vo2 of 3 ml/kg/min versus placebo group with a power of 90% and probability of 5% is 44. 30 patients will be required to identify a 5% change in cardiac PCr/ATP ratio with a power of 90% and a p value of <0.05. 40 patients will be required to detect a change ≧25% in nTTPF with power of 0.99 with probability of 5%. Therefore, we aimed to study 50 patients including the drop-outs, 32 of them will take part in the MRS study.

Data set [5] concerns symptomatic HCM patients. Kind of data set: Side effects and deaths in HCM study. Format: in vivo.
Text: as §1, with “(nTTPF).” for “(nTTPF). 33 controls of similar age and gender distribution were recruited for comparison with baseline data of HCM patients. All controls had no history or symptoms of any cardiovascular disease with normal ECG and echocardiogram (LVEF≧55%).”
Diabetic patients were also excluded to maintain the blindness of the study as Perhexiline may lead to a reduction in plasma glucose in such patients necessitating a reduction in anti-diabetic therapy. 46 consecutive consenting patients who met these entry criteria were recruited into the study.
as §5

The mark [6] stands for this setting: perhexiline group (n=25), during the first week of treatment.

`C1CCC(C(CC2CCCCN2)C2CCCCC2)CC1` (centres unmarked) [perhexiline, 2-(2,2-dicyclohexylethyl) piperidine]: the “Effect on peak VO2 (exercise capacity), in words” value in data set [1] (FIG. 5A legend, p=0.003 vs placebo) is recorded as “increases”. Further, in data set [1] (perhexiline group (n=25), before treatment, mean±SD), the “Peak VO2 at baseline” value was 22.2 ± 0.2 mL/min/kg. Moreover, in data set [1] (perhexiline group, 100 mg OD titrated to serum level, minimum 3 months, p=0.003 vs placebo response), the “Peak VO2 after treatment” value worked out at 24.29 ± 0.2 mL/min/kg. In addition, the “Increase in Peak VO2 after treatment” value in data set [1] (perhexiline group, after treatment vs baseline, placebo fell by -1.23, p=0.003) was 2.09 mL/min/kg. In addition, the “Effect on PCr/ATP ratio (energetic status of heart), in words” value in data set [2] (FIG. 5B legend, unchanged in placebo group) is “improves”. For the same compound, in data set [2] (perhexiline group, resting, after treatment, p=0.003 vs placebo), the “PCr/γATP ratio after treatment” value is reported as 1.73±0.02. Also, the “PCr/γATP ratio at baseline” value in data set [2] (perhexiline group, resting, before treatment, mean±SD) is on record as 1.27±0.02. Moreover, the “Effect on nTTPF response to exercise, in words” value in data set [3] (FIG. 5D legend, p=0.03 vs placebo) is recorded as “normalises the response to similar to that seen in healthy controls”. For the same compound, the “nTTPF at rest on therapy” value in data set [3] (perhexiline group, on therapy, at rest) was 0.19 ± 0.003 s. The “nTTPF during exercise on therapy” value in data set [3] (perhexiline group, on therapy, exercise at 50% of heart rate reserve) was 0.19 ± 0.004 s. In data set [3] (perhexiline group, on therapy, p=0.03 between perhexiline and placebo response), the “nTTPF change rest to exercise on therapy” value came out at 0.00 ± 0.003 s. Further, the “NYHA score (of breathlessness), in words” value in data set [4] (FIG. 5E legend) is reported as “falls (improves)”. In addition, the “Minnesota living with heart failure questionnaire score, in words” value in data set [4] (FIG. 5F legend) is given as “falls (=improved quality of life)”. In data set [4] (perhexiline group, after treatment, fall in score = improvement, p<0.001 vs placebo), the “Minnesota Living with heart failure questionnaire score after treatment” value is listed as 28±0.75. Also, in data set [4] (perhexiline group, before treatment), the “Minnesota Living with heart failure questionnaire score at baseline” value was determined as 36.13±0.94. Moreover, in data set [4] (perhexiline group, placebo 20 percent), the “Patients with worsening in NYHA classification” value amounted to 8%. Moreover, the “Patients with improvements in NYHA classification” value in data set [4] (perhexiline group, placebo 30 percent) was determined as 67%. Besides, in data set [5] (setting [6]), the “Side effects: dizziness (number of patients)” value is reported as 2 and the “Side effects: transient nausea (number of patients)” value was determined as 3. Further, in data set [5] (whole study, perhexiline and placebo groups), the “Deaths during the study period” value was “no deaths”.

The values above are taken from patent US8440697B2, “Treatment of heart failure” (Heart Metabolics Limited, priority 2007, dated 2013).
